Structures are written as SMILES. Calls of active or inactive are those of the source. No cut-off for these calls is given here. Bounds are passed on as bounds.

Experimental findings from ChEMBL document CHEMBL4715699, “Design, synthesis and biological evaluation of 1,3,6-trisubstituted β-carboline derivatives for cytotoxic and anti-leishmanial potential” (Bioorg Med Chem Lett, 2016) are described below.

One data set deals with Leishmania donovani. As to the kind of experiment: Antileishmanial activity against Leishmania donovani MHOM/80/IN/Dd8 promastigotes infected in THP-1 cells assessed as measured after 48 hrs by MTT assay. Format: functional, organism-based.
Data set [1] in a line: Solubility of the compound in 20% DMSO. Format: physicochemical.
Data set [2] deals with A549. Nature of the data set: Cytotoxicity against human A-549 cells assessed as reduction in cell viability at 10 uM measured after 24 hrs by MTT assay relative to control. Format: functional, cell-based. The settings on record: A549, 24 h.
Another data set has as its system HeLa. As to the kind of experiment: Cytotoxicity against human HeLa cells assessed as reduction in cell viability at 10 uM measured after 24 hrs by MTT assay relative to control. Format: functional, cell-based.
A further data set concerns HepG2. As to the kind of experiment: Cytotoxicity against human HepG2 cells assessed as reduction in cell viability at 10 uM measured after 24 hrs by MTT assay relative to control. The settings on record: HepG2, 24 h. The format is functional, cell-based.
Data set [3] relates to MCF7. Nature of the data set: Cytotoxicity against human MCF-7 cells assessed as reduction in cell viability at 10 uM measured after 24 hrs by MTT assay relative to control. The settings on record: MCF7, 24 h. The format is functional, cell-based.
For another data set, the system named is L132. As to the kind of experiment: Cytotoxicity against human L-132 cells assessed as reduction in cell viability at 10 uM measured after 24 hrs by MTT assay relative to control. Format: cell-based. The settings on record: L132, 24 h.
A further data set relates to THP-1. As to the kind of experiment: Cytotoxicity against differentiated human THP-1 cells measured after 48 hrs by MTT assay. Format: cell-based. The settings on record: THP-1, 48 h.
Data set [4] is described as follows: Selectivity index, ratio of IC50 for differentiated human THP-1 cells to IC50 for Leishmania donovani MHOM/80/IN/Dd8 promastigotes. Format: toxicity. The settings on record: differentiated THP-1 cells, read-out: Ratio IC50.
The test system of data set [5] is A549. As to the kind of experiment: Induction of apoptosis in human A549 cells at 10 uM measured after 6 hrs by Annexin V/Propidium iodide staining based confocal microscopy. Format: functional, cell-based.
Data set [6] concerns MCF7. Nature of the data set: Induction of apoptosis in human MCF7 cells at 10 uM measured after 6 hrs by Annexin V/Propidium iodide staining based confocal microscopy. The format is functional, cell-based.
Data set [7] is described as follows: Inhibition of IKK (unknown origin). Details: species or system Homo sapiens.
The nature of data set [8]: Inhibition of IKK in human HeLa S3 cells using biotinylated IkaapaB-alpha by ELISA phosphorylation assay. The format is cell-based.
[9] abbreviates: Leishmania donovani, MHOM/80/IN/Dd8, THP-1, 48 h, read-out: IC50.

For `COC(=O)c1cc2c([nH]c3ccc(NC(=O)c4ccc(Br)cc4)cc32)c(C)n1`, the IC50 result in the data set on Leishmania donovani is listed as “Nd(Insoluble)”. In addition, the solubility result in data set [1] is given as “Insoluble”.

On to `COC(=O)c1cc2c([nH]c3ccccc32)c(C)n1`, for which the IC50 turned out to be 37.8 µM in the data set with A549 [2]; 35.6 µM in the data set on HeLa; 39.6 µM in the data set on HepG2; 45 µM in the data set with MCF7 [3]; 39.3 µM in the data set on L132; 9 µM in the data set with Leishmania donovani (setting [9]). Further, the IC50 with THP-1 is more than 100 µM. Moreover, the selectivity ratio in data set [4] is more than 11.1.

On to `COC(=O)c1cc2c([nH]c3ccc(NC(=O)c4ccccc4)cc32)c(C)n1`, for which the IC50 in the data set on Leishmania donovani (setting [9]) is more than 100 µM.

With `COC(=O)c1cc2c([nH]c3ccc(NC(=O)c4ccco4)cc32)c(C)n1`, the IC50 with Leishmania donovani (setting [9]) is more than 100 µM.

As for `COC(=O)c1cc2c([nH]c3ccc(NC(=O)c4cc(C(F)(F)F)cc(C(F)(F)F)c4)cc32)c(C)n1`, the IC50 in the data set on A549 [2] was 15.5 µM; in the data set on HeLa, 5.3 µM; with HepG2, 6.15 µM; with MCF7 [3] it was 13.4 µM; in the data set with L132, 11.2 µM; with Leishmania donovani it was “Nd(Insoluble)”. The result with A549 [5] and in the data set on MCF7 [6] was Active. Besides, the solubility entry in data set [1] is “Insoluble”.

For the compound `COC(=O)c1cc2c([nH]c3ccc(NC(=O)Oc4ccc([N+](=O)[O-])cc4)cc32)c(C)n1`, the 50% inhibitory concentration (IC50) result with Leishmania donovani is on record as “Nd(Insoluble)”. Moreover, the solubility entry in data set [1] was “Insoluble”.

As to `CC(=O)O[C@@]12CO[C@@H]1C[C@H](O)[C@@]1(C)C(=O)[C@H](O)C3=C(C)[C@@H](OC(=O)[C@H](O)[C@@H](NC(=O)OC(C)(C)C)c4ccccc4)C[C@@](O)([C@@H](OC(=O)c4ccccc4)[C@H]21)C3(C)C` [DOCETAXEL ANHYDROUS], the IC50 with A549 [2] was 3.41 µM; with HeLa, 3.23 µM; in the data set on HepG2, 2.86 µM; in the data set on MCF7 [3], 3.6 µM; in the data set on L132, 1.68 µM.

For `COC(=O)c1cc2c([nH]c3ccc(NC(=O)COc4ccccc4)cc32)c(C)n1`, the IC50 entry in the data set on Leishmania donovani is “Nd(Insoluble)”. Further, in data set [1], the solubility result is reported as “Insoluble”.

Regarding `CCCCCCCCCCCC(=O)Nc1ccc2[nH]c3c(C)nc(C(=O)OC)cc3c2c1`, the concentration for half-maximal inhibition (IC50) entry with Leishmania donovani is reported as “Nd(Insoluble)”. Besides, the solubility result in data set [1] is “Insoluble”.

As for `COC(=O)c1cc2c([nH]c3ccc(NC(=O)c4ccc(C(C)(C)C)cc4)cc32)c(C)n1`, the half-maximal inhibitory concentration (IC50) in the data set on A549 [2] was found to be 4.72 µM; with HeLa it was 3.59 µM; with HepG2, 3.65 µM; in the data set with MCF7 [3], 4.17 µM; in the data set with L132, 3.26 µM; in the data set with Leishmania donovani (setting [9]), 68 µM. The compound also returned a half-maximal inhibitory concentration (IC50) in the data set with THP-1 of 32 µM. Also, the outcome in the data set with A549 [5] and in the data set with MCF7 [6] was Active. In addition, the selectivity ratio in data set [4] amounted to 0.47.

For `COC(=O)c1cc2c([nH]c3ccc(NC(=O)c4cc(C)oc4C)cc32)c(C)n1`, in the data set on Leishmania donovani (setting [9]), the IC50 is more than 100 µM.

On to `COC(=O)c1cc2c([nH]c3ccc(NC(=O)/C=C/c4ccccc4)cc32)c(C)n1`, for which the IC50 result with Leishmania donovani is recorded as “Nd(Insoluble)”. Also, in [1], the solubility result was “Insoluble”.

With `CCCCC(=O)Nc1ccc2[nH]c3c(C)nc(C(=O)OC)cc3c2c1`, the IC50 in the data set with Leishmania donovani (setting [9]) is more than 100 µM.

As for `COC(=O)c1cc2c([nH]c3ccc(NC(=O)c4ccc(C(F)(F)F)cc4)cc32)c(C)n1`, the IC50 entry with Leishmania donovani is “Nd(Insoluble)”. Moreover, the solubility result in data set [1] is “Insoluble”.

Take `COc1ccc2[nH]c3cnccc3c2c1Br`: it took 1 µM to reach half-maximal inhibition in [7] (IC50).

In data set [8], `Clc1cc2c([nH]c3cnccc32)c(Cl)c1OCC1CC1` showed a concentration for half-maximal inhibition (IC50) of 0.08 µM.

Turning to `COC(=O)c1cc2c([nH]c3ccc(NC(=O)c4ccc(C)cc4)cc32)c(C)n1`, in the data set with Leishmania donovani, the half-inhibitory concentration (IC50) entry is reported as “Nd(Insoluble)”. Moreover, the solubility result in data set [1] is reported as “Insoluble”.

On to `CCCCCCCCCCCCCCCCOP(=O)([O-])OCC[N+](C)(C)C` [MILTEFOSINE], for which the IC50 in the data set on Leishmania donovani (setting [9]) was 11.9 µM; with THP-1, 31.5 µM. The selectivity ratio in [4] worked out at 2.64.

With `COC(=O)c1cc2c([nH]c3ccc([N+](=O)[O-])cc32)c(C)n1`, the IC50 in the data set with Leishmania donovani (setting [9]) was more than 100 µM.

For the compound `COC(=O)c1cc2c([nH]c3ccc(NC(C)=O)cc32)c(C)n1`, the 50% inhibitory concentration (IC50) with Leishmania donovani (setting [9]) is more than 100 µM.

For `COC(=O)c1cc2c([nH]c3ccc(NC(=O)c4ccc5ccccc5c4)cc32)c(C)n1`, the IC50 entry with Leishmania donovani is listed as “Nd(Insoluble)”. Also, the solubility entry in [1] is “Insoluble”.

`COC(=O)c1cc2c([nH]c3ccc(N)cc32)c(C)n1`: in the data set on Leishmania donovani (setting [9]), the IC50 is more than 100 µM.

As for `COC(=O)c1cc2c([nH]c3ccc(NC(=O)c4ccc(OC)cc4)cc32)c(C)n1`, the concentration for half-maximal inhibition (IC50) entry in the data set with Leishmania donovani is recorded as “Nd(Insoluble)”. Moreover, the solubility result in data set [1] is listed as “Insoluble”.

In the case of `COC(=O)c1cc2c([nH]c3ccc(NC(=O)c4cc(OC)c(OC)c(OC)c4)cc32)c(C)n1`, in the data set on Leishmania donovani (setting [9]), the half-inhibitory concentration (IC50) turned out to be 100 µM.

As to `COCC(=O)Nc1ccc2[nH]c3c(C)nc(C(=O)OC)cc3c2c1`, the IC50 with Leishmania donovani (setting [9]) is more than 100 µM.

As for `COC(=O)c1cc2c([nH]c3ccc(NC(=O)c4ccccc4C(F)(F)F)cc32)c(C)n1`, the IC50 in the data set on Leishmania donovani (setting [9]) is more than 100 µM.

Take `COC(=O)c1cc2c([nH]c3ccc(NC(=O)c4cccs4)cc32)c(C)n1`: the half-maximal inhibitory concentration (IC50) with Leishmania donovani (setting [9]) is more than 100 µM.

For the compound `COC(=O)c1cc2c([nH]c3ccc(NC(=O)C4CCCCC4)cc32)c(C)n1`, the results for the IC50 in the data set with Leishmania donovani (setting [9]) and in the data set on THP-1 were 23.5 µM and 77 µM, respectively. For the same compound, the selectivity ratio in data set [4] was 3.27.
